Laboratory results: patent US5484803A, “Transcutaneous in vivo activation of photosensitive agents in blood” (priority 1995, dated 1996)

Columns and labels:
Type in all cases: in vivo, Balb/c mice
mice skin = test: Skin photosensitivity tests (skin and behaviour after double treatment)
Description: Male Balb/c mice (7-11 weeks old; Charles River, Canada) were used in these studies, unless otherwise specified. Balb/c mice were chosen for the studies because of the lack of pigment in their skin. Shaving and depilation removed the hair very effectively from the entire body except the head. Then, the mouse skin appeared quite transparent. Internal organs, especially dark red organs such as liver and spleen, were visible through the skin. The mice were shaved and depilated with a commercially available depilator (Neet® or Nair®) 5 days before being used in the experiments. Control mice, injected with BPD but not exposed to light, were not shaved. Following injection the mice were kept in the dark for various lengths of time, as described below. Before and after the experiments the mice were kept in an animal facility with 12 hours of light and 12 hours of dark daily. After the experiments, in order to reduce the amount of light reaching the mice, their cages were placed on the lowest shelf with aluminum foil placed above them.
The light box was custom built at a workshop at the University of British Columbia. It was composed of two layers of 14 75 W tungsten-halogen reflector bulbs (General Electric), which illuminated the treatment area from the top and from the bottom. Light was filtered by 1) a set of filters comprising yellow and red plastic films which absorbed most of the light at wavelengths shorter than 600 nm and 2) 15 mm thick water filters which absorbed light above 900 nm. Cooling was provided by a steady flow of cold water in the water filters and by a set of 5 fans. The light intensity was measured by an IL 1350 Photometer (International Light).
The intensity of light delivered by the top and bottom sets of bulbs was not uniform. The bottom set delivered 33-40 mW/cm^2 as measured at floor level of the exposure chamber, while the top set delivered 27-33 mW/cm^2 as measured at the skin surface of the backs of the animals. The range described resulted from inconsistent influence at the horizontal plane of irradiation. In addition, mice moved about during light exposure, so that at various times different parts of their skin received different amounts of light. Therefore, the doses delivered to the surface of mice skin must be approximated and the calculations have been based on an intensity of 30 mW/cm^2.
Six Balb/c mice (22±1 g weight) were prepared as described above. Five mice were injected twice (24 hour interval) with BPD from DMSO stock (not liposomal BPD) and exposed to light 1 hour after the injection. One mouse was not injected but was exposed to light (light-only control). During the first treatment the mice were injected with 15 μg BPD/mouse in 200 μl of PBS. During the second treatment the mice were injected with 20 μg BPD/mouse (0.9 mg/kg). A single mouse was used as a control for both treatments.
Immediately post-injection (on both occasions) the animals were kept for 1 hour in the dark and then were placed in individual plastic containers (9×4×5 cm), which were placed in the light box and exposed to light. The individual mice were removed from the light box at different intervals: 15, 30, 45, 60 and 75 min, respectively. The light doses delivered at the surface of the skin were 27, 54, 81, 108 and 135 J/cm^2, respectively. On the second occasion the same light doses were used; however, mice receiving higher light doses on day 1 received lower doses on day 2. The control mouse was exposed to light for 60 min on both occasions. […]

[1] = Pharmacokinetic studies: BPD concentration in plasma; conditions: for Plasma Conc.: liposomal BPD
Description: (§1) Determination of BPD Concentration in Plasma: Plasma samples were obtained by centrifugation of blood collected from mice and stored frozen at -20° C. until assessment. The concentration of BPD in the samples was determined by fluorometry using a Jasco Model FP-770 (Japan Spectroscopic Co.) spectrofluorometer and a microcuvette (Far UV Quartz Cell, Starna Cells Inc.). Excitation and emission wavelengths were 439 and 699 nm, respectively. Plasma samples were diluted 20-fold with PBS containing 1% Triton® X-100 immediately before fluorescence was determined. BPD standards were prepared in 5% mouse plasma in PBS with 1% Triton® X-100. Under these conditions the relationship between the concentration of BPD and units of fluorescence was linear (correlation coefficient >0.99) for concentrations between 0.1 ng/ml and 1 μg/ml. The limit of detection was below 0.1 ng/ml sample which corresponded to 2 ng/ml plasma. […] The 699 nm fluorescence peak of BPD was virtually free from any interference.
In order to determine the level of BPD in plasma during the light treatment, the following experiment was carried out. Fourteen Balb/c mice (22±1 g of weight) were injected with liposomal BPD at 20 μg/mouse (0.9 mg/kg) in 200 μl PBS per mouse. Blood samples were obtained by heart puncture at various time intervals between 15 min and 2 hours post-injection. Exposure to light started at 15 min post-injection for some mice. The BPD concentration in plasma was determined as described above.

[2] = BPD concentration in plasma of mice injected with L1210 cells; conditions: for BPD Concentration in Plasma: Balb/c mice injected with L1210 cells; for BPD Concentration in Plasma, % of dark control: L1210
Description: as §1
Male mature DBA/2 and Balb/c mice were injected intravenously with P815 and L1210 cells, respectively, preincubated for 1 hour with BPD (liposomal) at 100 ng/ml. Immediately before animal injection, an additional 2 μg of BPD was added to the syringes containing cells. […] One group of mice (shaved and depilated) was exposed immediately to red light (600-900 nm) in the light box for 1.5 hours (162 J/cm^2); the other group was kept in the dark as the control.
Immediately after exposure to light, blood samples were obtained by a heart puncture under halothane anesthesia. The concentration of BPD in plasma of light-exposed and control mice was determined by fluorescence. The number of clonogenic tumor cells in mouse blood was determined by culturing blood samples in culture medium supplemented with 10% bovine serum, using a limiting dilution assay protocol.

benzoprophyrin derivative monoacid ring A [BPD]
signs of skin photosensitization (mice skin; 0.9 mg/kg, red light 1 hour after injection, 27 to 135 J/cm^2, two weeks): did not show any signs of skin photosensitization | gross changes in skin (mice skin; Balb/c, i.e. 15 then 20 μg BPD/mouse (DMSO stock), light 27-135 J/cm^2, immediately post-exposure and two weeks): No gross changes were observed in mice skin | effect of the same light dose at lower plasma levels (mice skin; as demonstrated in Example 1): apparently harmless | behaviour / discomfort under the light (mice skin; both days of treatment, 27-135 J/cm^2, except occasional scratching): behaved normally under the light, without any signs of discomfort | behavioral changes (mice skin; two weeks after double treatment): No behavioral changes were observed | plasma level of BPD at the beginning of exposure to light ([1]; 1 hour post-injection, as in Example 1, 0.9 mg/kg): about 4 μg/ml | Plasma Conc. ([1]; 0.83 mg/kg, 20 min post injection): 4680 ng/mL | Plasma Conc. ([1]; 0.83 mg/kg, 2 h 5 min post injection (text: 2 hours), 125 min): 2440 ng/mL | Plasma Conc. ([1]; 0.87 mg/kg, 15 min post injection): 6320 ng/mL | Plasma Conc. ([1]; 0.87 mg/kg, 1 h 38 min post injection, 98 min): 1800 ng/mL | Plasma Conc. ([1]; 0.87 mg/kg, 1 h 42 min post injection, 102 min): 3220 ng/mL | Plasma Conc. ([1]; 0.91 mg/kg, 1 h 24 min post injection, 84 min): 2920 ng/mL | Plasma Conc. ([1]; 0.91 mg/kg, 1 h 32 min post injection, 92 min): 2980 ng/mL | Plasma Conc. ([1]; 0.95 mg/kg, 1 h 23 min post injection, 83 min): 3260 ng/mL | Percent photodegraded ([2]; Balb/c, L1210, 162 J/cm^2): 59% | BPD Concentration in Plasma ([2]; Dark control): 126.45 ng/mL | BPD Concentration in Plasma, % of dark control ([2]; Dark control): 100% | BPD Concentration in Plasma ([2]; Light exposed (162 J/cm^2)): 52.23 ng/mL | BPD Concentration in Plasma, % of dark control ([2]; Light exposed (162 J/cm^2)): 41%
